Where two headings read alike, the source gives them in different places.
What was measured:
[1] = tested on: HAP1 MTAP-deleted cell line; assay: Viability assay, MTAP-deleted cell line; format: cell-based; conditions: Homo sapiens, read-out: HAP1 MTAP deleted viability
Description: Table 1 additionally indicates IC50 values in a viability assay for the MTAP-deleted cell line (column 10), indicating the effect of treatment with compound on cell survival.

[2] = biological target: T1, PRMT5 (Homo sapiens, UniProt O14744); assay: PRMT5 biochemical IC50 assay with no cofactor; conditions: PRMT5, no cofactor
T1 construct: purchased Viva (custom protein)
T1 sequence (O14744 whole entry): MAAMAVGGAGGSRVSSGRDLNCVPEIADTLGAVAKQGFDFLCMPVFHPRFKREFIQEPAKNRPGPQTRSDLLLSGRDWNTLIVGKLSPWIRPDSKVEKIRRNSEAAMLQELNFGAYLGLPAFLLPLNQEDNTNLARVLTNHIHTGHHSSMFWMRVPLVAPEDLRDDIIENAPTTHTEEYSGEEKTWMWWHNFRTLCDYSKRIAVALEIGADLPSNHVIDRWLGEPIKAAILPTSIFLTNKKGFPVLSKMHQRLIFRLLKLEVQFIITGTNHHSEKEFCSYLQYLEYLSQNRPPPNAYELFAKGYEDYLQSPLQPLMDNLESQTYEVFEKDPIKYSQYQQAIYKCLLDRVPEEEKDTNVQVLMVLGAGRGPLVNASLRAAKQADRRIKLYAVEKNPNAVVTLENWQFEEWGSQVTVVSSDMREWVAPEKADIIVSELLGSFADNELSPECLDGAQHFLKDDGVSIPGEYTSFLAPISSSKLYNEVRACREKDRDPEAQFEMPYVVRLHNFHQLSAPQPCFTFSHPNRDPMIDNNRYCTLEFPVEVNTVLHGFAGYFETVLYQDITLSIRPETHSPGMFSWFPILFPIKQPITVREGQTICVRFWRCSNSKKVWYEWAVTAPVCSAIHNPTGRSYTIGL
T1 sequence (Q9BQA1 whole entry partner): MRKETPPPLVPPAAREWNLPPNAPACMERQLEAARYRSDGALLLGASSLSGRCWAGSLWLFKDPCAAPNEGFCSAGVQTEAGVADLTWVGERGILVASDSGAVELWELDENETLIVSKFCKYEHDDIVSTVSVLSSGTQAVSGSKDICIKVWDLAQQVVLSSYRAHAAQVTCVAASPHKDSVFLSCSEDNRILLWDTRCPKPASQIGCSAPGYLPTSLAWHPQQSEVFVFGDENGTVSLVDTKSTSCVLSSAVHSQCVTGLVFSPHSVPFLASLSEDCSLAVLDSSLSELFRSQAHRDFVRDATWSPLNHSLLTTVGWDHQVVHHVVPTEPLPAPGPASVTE
Description: Table 1 indicates IC50 values (μM) against PRMT5 for exemplary compounds in the presence of SAM as cofactor, with no cofactor, and with MTA as cofactor, respectively (columns 4-6). […] Ki values can be calculated from the IC50 values as described in the Examples section. As detailed in the Examples section, for the assay performed in the presence of SAM, IC50=Ki×1.5 (Ki=IC50/1.5).

[3] = tested on: HAP1 MTAP-intact cell line; assay: SDMA in-cell western assay, HAP1 MTAP-intact; format: cell-based; conditions: HAP1 MTAP-intact, read-out: MTAP HAP1 intact IC50
Outline: (§1)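 IC50 values come from SDMA signal quantified by in-cell western in two HAP1 lines, one with native MTAP levels and one lacking MTAP.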

[4] = tested on: HAP1 MTAP-deleted cell line; assay: SDMA in-cell western assay, HAP1 MTAP-deleted; format: cell-based; conditions: for IC50: Homo sapiens, HAP1, SDMA in-cell western, HAP1 MTAP-deleted; for MTAP intact/deleted ratio: SDMA in-cell western
Outline: as §1

[5] = biological target: T1, PRMT5; assay: PRMT5 biochemical IC50 assay with SAM as cofactor; conditions: PRMT5, SAM as cofactor; read-out: SAM IC50
[6] = biological target: T1, PRMT5; assay: PRMT5 biochemical IC50 assay with MTA as cofactor; conditions: PRMT5, MTA as cofactor; read-out: MTA IC50
[7] = HAP1, viability assay, MTAP-deleted cell line
[8] = read-out: No Cofactor/ rel IC50
[9] = Homo sapiens, HAP1, SDMA in-cell western
[10] = read-out: HAP 1 MTAP deleted IC50
[11] = IC50 ratio HAP1 MTAP-intact / HAP1 MTAP-deleted
[12] = read-out: HAP1 MTAP deleted IC50
[13] = HAP1, viability, HAP1 MTAP-deleted cell line

Structure (SMILES) | IC50 [1, 7] [nM] | IC50 [2, 8] [nM] | IC50 [3, 9] [nM] | IC50 [4, 10] [nM] | MTAP intact/deleted ratio [4, 11] | IC50 [5] [nM] | IC50 [6] [nM] | IC50 ([2]; read-out: No Cofactor/rel IC50) [nM] | IC50 ([1]; HAP1, viability IC50, MTAP-deleted cell line) [nM] | IC50 [4, 12] [nM] | MTAP intact/deleted ratio ([4]; IC50 ratio HAP1 MTAP-intact vs HAP1 MTAP-deleted) | IC50 [1, 13] [nM] | IC50 ([3]; SDMA in-cell western) [nM]
Cc1cc(NC(=O)C(=O)N2C[C@H](C)CC[C@H]2c2cccs2)cnc1N (single isomer, unassigned) [Compound 115] | < 1000 | < 50 | 100 to 1000 | < 100 | A (an IC50 ratio greater than or equal to 10 fold) | 50 to 500 | < 50 | – | – | – | – | – | –
Cc1nc2cc([C@@H]3CC[C@@H](C)CN3C(=O)C(=O)Nc3cnc(N)c(C)c3)ccc2[nH]1 (single isomer, unassigned) [Compound 963] | > 10000 | – | > 1000 | > 1000 | B (an IC50 ratio greater than or equal to 3 fold but lower than 10 fold) | > 500 | > 500 | > 500 | – | – | – | – | –
CNS(=O)(=O)c1ccc([C@@H]2CC[C@@H](C)CN2C(=O)C(=O)Nc2cncc(C(N)=O)c2)cc1 (racemic) [Compound 652, rac 5-[[2-[(2S,5R)-5-methyl-2-[4-(methylsulfamoyl)phenyl]-1-piperidyl]-2-oxo-acetyl]amino]pyridine-3-carboxamide] | – | – | > 1000 | > 1000 | C (an IC50 ratio of less than 3 fold) | 50 to 500 | 50 to 500 | 50 to 500 | > 10000 | – | – | – | –
C[C@H]1C[C@H](C)[C@H](c2ccccc2)N(C(=O)C(=O)Nc2cncc(C(N)=O)c2)C1 (single isomer, unassigned) [Compound 267, 5-(2-(3,5-dimethyl-2-phenylpiperidin-1-yl)-2-oxoacetamido)nicotinamide] | 1000 to 10000 | – | > 1000 | – | A (an IC50 ratio greater than or equal to 10 fold) | < 50 | < 50 | 50 to 500 | – | < 100 | – | – | –
CCc1cc(NC(=O)C(=O)N2C[C@@H](C)CC[C@@H]2c2ccc3sc(C4CCN(CCC(F)(F)F)CC4)nc3c2)cnc1N [Compound 1124, N-(6-amino-5-ethylpyridin-3-yl)-2-((2R,5S)-5-methyl-2-(2-(1-(3,3,3-trifluoropropyl)piperidin-4-yl)benzo[d]thiazol-5-yl)piperidin-1-yl)-2-oxoacetamide] | < 1000 | – | < 100 | – | – | 50 to 500 | < 50 | < 50 | – | < 100 | B (an IC50 ratio greater than or equal to 3 fold but lower than 10 fold) | – | –
CCc1cc(NC(=O)C(=O)N2C[C@@H](C)CC[C@@H]2c2ccc3nn([C@@H]4CCN(C)C4)cc3c2)cnc1N (racemic) [Compound 1398, N-(6-Amino-5-ethyl-3-pyridyl)-2-oxo-2-[rac-(2R,5S)-5-methyl-2-[2-[rac-(3R)-1-methylpyrrolidin-3-yl]indazol-5-yl]-1-piperidyl]acetamide] | – | 50 to 500 | < 100 | < 100 | A (an IC50 ratio greater than or equal to 10 fold) | 50 to 500 | < 50 | – | – | – | – | < 1000 | –
C[C@@H]1CC[C@@H](c2ccc(C3(O)CCC3)cc2)N(C(=O)C(=O)Nc2cncc(C(N)=O)c2)C1 (racemic) [Compound 259, rac-5-{2-[(2R,5S)-2-[4-(1-Hydroxycyclobutyl)phenyl]-5-methylpiperidin-1-yl]-2-oxoacetamido}pyridine-3-carboxamide] | > 10000 | – | > 1000 | – | A (an IC50 ratio greater than or equal to 10 fold) | 50 to 500 | 50 to 500 | 50 to 500 | – | 100 to 1000 | – | – | –
Cc1cc(NC(=O)C(=O)N2C[C@H](C)CC[C@H]2c2ccc3sc(C(F)(F)F)nc3c2)cnc1N (single isomer, unassigned) [Compound 959] | > 10000 | – | > 1000 | > 1000 | B (an IC50 ratio greater than or equal to 3 fold but lower than 10 fold) | > 500 | > 500 | > 500 | – | – | – | – | –
CCc1cc(NC(=O)C(=O)N2C[C@@H](C)CC[C@@H]2c2ccc3sc([C@H]4CN(C)CCO4)nc3c2)cnc1N [Compound 1275, N-(6-amino-5-ethylpyridin-3-yl)-2-((2R,5S)-5-methyl-2-(2-(4-methylmorpholin-2-yl)benzo[d]thiazol-5-yl)piperidin-1-yl)-2-oxoacetamide] | – | < 50 | – | < 100 | A (an IC50 ratio greater than or equal to 10 fold) | 50 to 500 | < 50 | – | – | – | – | < 1000 | 100 to 1000

Reference: US11999727B2 (Tango Therapeutics, Inc., priority 2020, dated 2024)
